Where “and” joins values, the source holds several entries; their conditions need not be identical. Equal values may be shown once.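 Five concentrations, 48 hours, 96-well plates. The concentration for 50% growth inhibition is given as GI50. Definition used: TGI = concentration required for complete inhibition of growth.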

In one test the test system is MALME-3M melanoma. The test can be described thus: DTP human tumour cell line panel, 48 h.
`Cc1c(C)c(CC(=O)N2CC2)c(C)c(C)c1CC(=O)N1CC1`: the TGI is 27.1 µM.

Regarding `O=C1c2ccccc2-c2c1c1c(NCCCO)nc3ccccc3c1n2Cc1ccccc1`, the GI50 is 19 µM and the TGI was found to be 38.2 µM.

Regarding `O=C1c2ccccc2-c2c1c1ccccc1c(=O)n2CCNCCn1c2c(c3ccccc3c1=O)C(=O)c1ccccc1-2`, the GI50 is greater than 25 µM and the TGI is greater than 25 µM.

Compound `CCCCCCCCCCCCCCCCCCOCC(COCCOCC[N+]1(CCCCCC(=O)[O-])CCCC1)Oc1ncccn1` (centres undefined) yielded a TGI of 32.8 µM. In other words, the double-digit micromolar range.

Take `CCOc1ccc(Nc2c3ccccc3nc3ccccc23)cc1`: the GI50 is 0.806 µM and 0.468 µM; the TGI is 4.1 µM and 3.45 µM.

For `CCNCCNc1cc(-c2ccc(C#N)cc2)c(C#N)c2nc3ccccc3n12`, the GI50 is 1.8 µM and the TGI was determined as 3.99 µM.

Turning to `[2H]c1nc(=Nc2cc(NC(=O)C=C)c(N(C)CCN(C)C)cc2OC)[nH]c(-c2cn(C([2H])([2H])[2H])c3ccccc23)c1[2H]`, the GI50 was 1.94 µM and the TGI worked out at 3.66 µM.

Consider `COc1cc2nc(-c3ccc(C(F)(F)F)cc3)cc(OCCCN3CCCC3)c2cc1OC`, for which the GI50 was 1.66 µM and the TGI is 5.59 µM.

A further test concerns HS 578T breast. Briefly: DTP human tumour cell line panel, 48 h.
`COC(=O)c1ccc2c(c1)C(=O)c1c-2n(CCCN=[N+]=[N-])c(=O)c2cc([N+](=O)[O-])ccc12`: the GI50 is 42.6 µM and the TGI was greater than 100 µM.

Consider `C=C1C(=O)C23C(O)C1CC[C@H]2C12CCCC(C)(COC(C)=O)[C@H]1[C@H](O)[C@]3(O)OC2` (some centres undefined), for which the TGI amounted to 9.99 µM.

Turning to `O=C(c1cccs1)C1NO[N+]([O-])=C1c1cccs1` (centres undefined), the GI50 was 2.82 µM and the TGI was determined as 14.6 µM.

Regarding `CN1c2ccccc2SC2C(c3ccccc3)=NOC21` (centres undefined), the TGI was greater than 100 µM.

Take `COc1ccc(C2=C(N3CCc4ccccc43)C(=O)NC2=O)cc1`: the GI50 was greater than 20.9 µM and the TGI is greater than 25 µM.

Turning to `Cc1cc2c(cc1Cl)S/C(=C/C(=O)O)C(Nc1cccc3nsnc13)=NS2(=O)=O`, the GI50 was 30.5 µM and the TGI was greater than 60.7 µM.

Take `COc1ccc(F)c(F)c1C(=O)c1cnc(NC2CCN(S(C)(=O)=O)CC2)nc1N`: the GI50 was 1.52 µM and 0.695 µM; the TGI was 6.12 µM and > 8.4 µM.

Take `Nc1cc(-c2ccc(Cl)cc2)nn1-c1nnc(/C=C/c2ccco2)c(=O)[nH]1`: the GI50 is 10.2 µM and the TGI was greater than 64.3 µM.

In turn, `Cc1c(C)c(CC(=O)N2CC2)c(C)c(C)c1CC(=O)N1CC1` gave a TGI of 81.9 µM.

For `O=C1c2ccccc2-c2c1c1c(NCCCO)nc3ccccc3c1n2Cc1ccccc1`, the GI50 was 40.6 µM and the TGI was greater than 100 µM.

Consider `O=C1c2ccccc2-c2c1c1ccccc1c(=O)n2CCNCCn1c2c(c3ccccc3c1=O)C(=O)c1ccccc1-2`, for which the GI50 is greater than 25 µM and the TGI is greater than 25 µM.

On to `CCCCCCCCCCCCCCCCCCOCC(COCCOCC[N+]1(CCCCCC(=O)[O-])CCCC1)Oc1ncccn1` (centres undefined), for which the TGI stood at 28.8 µM.

With `CCOc1ccc(Nc2c3ccccc3nc3ccccc23)cc1`, the GI50 is 1.23 µM and 0.29 µM.

On to `CCNCCNc1cc(-c2ccc(C#N)cc2)c(C#N)c2nc3ccccc3n12`, for which the GI50 is 3.49 µM and the TGI turned out to be 13.9 µM.

For `[2H]c1nc(=Nc2cc(NC(=O)C=C)c(N(C)CCN(C)C)cc2OC)[nH]c(-c2cn(C([2H])([2H])[2H])c3ccccc23)c1[2H]`, the GI50 was 2.59 µM and the TGI amounted to 9.74 µM.

Turning to `COc1cc2nc(-c3ccc(C(F)(F)F)cc3)cc(OCCCN3CCCC3)c2cc1OC`, the GI50 was 2.48 µM and the TGI is 19.3 µM.

The next test concerns RXF 393 renal. The test can be described thus: DTP human tumour cell line panel, 48 h.
With `COC(=O)c1ccc2c(c1)C(=O)c1c-2n(CCCN=[N+]=[N-])c(=O)c2cc([N+](=O)[O-])ccc12`, the GI50 was 37.3 µM and the TGI is greater than 100 µM.

As to `C=C1C(=O)C23C(O)C1CC[C@H]2C12CCCC(C)(COC(C)=O)[C@H]1[C@H](O)[C@]3(O)OC2` (some centres undefined), the TGI came out at 1.58 µM.

Consider `O=C(c1cccs1)C1NO[N+]([O-])=C1c1cccs1` (centres undefined), for which the GI50 was 1.68 µM and the TGI came out at 3.42 µM.

The compound `CN1c2ccccc2SC2C(c3ccccc3)=NOC21` (centres undefined) yielded a TGI greater than 100 µM.

As to `COc1ccc(C2=C(N3CCc4ccccc43)C(=O)NC2=O)cc1`, the GI50 was greater than 25 µM and the TGI is greater than 25 µM.

Turning to `Cc1cc2c(cc1Cl)S/C(=C/C(=O)O)C(Nc1cccc3nsnc13)=NS2(=O)=O`, the GI50 is greater than 52.7 µM and the TGI is greater than 68.5 µM.

Regarding `COc1ccc(F)c(F)c1C(=O)c1cnc(NC2CCN(S(C)(=O)=O)CC2)nc1N`, the GI50 was 0.286 µM and 0.149 µM; the TGI is 1.48 µM and 0.423 µM.

Take `Nc1cc(-c2ccc(Cl)cc2)nn1-c1nnc(/C=C/c2ccco2)c(=O)[nH]1`: the GI50 was 9.91 µM and the TGI came to 34.7 µM.

The compound `Cc1c(C)c(CC(=O)N2CC2)c(C)c(C)c1CC(=O)N1CC1` showed a TGI of 12.8 µM. This lies in the double-digit micromolar range.

On to `O=C1c2ccccc2-c2c1c1c(NCCCO)nc3ccccc3c1n2Cc1ccccc1`, for which the GI50 is 32.5 µM and the TGI was determined as 86.6 µM.

Consider `O=C1c2ccccc2-c2c1c1ccccc1c(=O)n2CCNCCn1c2c(c3ccccc3c1=O)C(=O)c1ccccc1-2`, for which the GI50 is greater than 25 µM and the TGI is greater than 25 µM.

The compound `CCCCCCCCCCCCCCCCCCOCC(COCCOCC[N+]1(CCCCCC(=O)[O-])CCCC1)Oc1ncccn1` (centres undefined) registered a TGI of 10.4 µM.

In the case of `CCOc1ccc(Nc2c3ccccc3nc3ccccc23)cc1`, the GI50 is 0.397 µM and 0.402 µM; the TGI is 2.25 µM and 2.71 µM.

Consider `CCNCCNc1cc(-c2ccc(C#N)cc2)c(C#N)c2nc3ccccc3n12`, for which the GI50 is 1.74 µM and the TGI is 4.1 µM.

With `[2H]c1nc(=Nc2cc(NC(=O)C=C)c(N(C)CCN(C)C)cc2OC)[nH]c(-c2cn(C([2H])([2H])[2H])c3ccccc23)c1[2H]`, the GI50 is 1.4 µM and the TGI was determined as 3.2 µM.

In the case of `COc1cc2nc(-c3ccc(C(F)(F)F)cc3)cc(OCCCN3CCCC3)c2cc1OC`, the GI50 was 0.448 µM and the TGI was determined as 3.85 µM.

One may read the TGI as the concentration giving total growth inhibition. Low readings indicate greater sensitivity of the cells, high ones lower sensitivity of the cells. The GI50 is the concentration at which growth is held to half of that of the control.

Values taken from PubChem BioAssay (NCI).
